Literature values as cited in article PMC12557437, “Research towards selective inhibition of the CLK3 kinase” (Beilstein Journal of Organic Chemistry, 2025).

Columns and labels:
CLK3 [1] = conditions: human protein kinase; ref 17 (SM08502), 19 (T3), 20-21 (CX-4945), 24 (DB18); cited from earlier work
DYRK1B [2] = system: DYRK1B; parameters: method as in earlier work; conditions: human protein kinase; ref 17 (SM08502), 19 (T3); cited from earlier work
DYRK1A [3] = conditions: human protein kinase; ref 17 (SM08502), 19 (T3), 20-21 (CX-4945), 24 (DB18); cited from earlier work
CLK2 [4] = conditions: human protein kinase; ref 17 (SM08502), 19 (T3), 20-21 (CX-4945), 24 (DB18); cited from earlier work
CLK1 [5] = conditions: human protein kinase; ref 17 (SM08502), 19 (T3), 20-21 (CX-4945), 24 (DB18); cited from earlier work
DYRK2 [6] = target: DYRK2; parameters: method as in PMID 29769258; conditions: human protein kinase; cited from earlier work
CLK2 [7] = target: CLK2; parameters: method as in PMID 29769258; conditions: human protein kinase; cited from earlier work
CLK1 [8] = target: CLK1; parameters: method as in PMID 29769258; conditions: human protein kinase; cited from earlier work
CLK3 [9] = target: CLK3; parameters: method as in PMID 29769258; conditions: human protein kinase; cited from earlier work
DYRK1B [10] = target: DYRK1B; parameters: method as in PMID 29769258; conditions: human protein kinase; cited from earlier work
DYRK1A [11] = target: DYRK1A; parameters: method as in PMID 29769258; conditions: human protein kinase; cited from earlier work
CLK4 [12] = target: CLK4; parameters: method as in PMID 29769258; conditions: human protein kinase; cited from earlier work
Mm_CLK4 = Mm_CLK4 (Mus musculus, UniProt O35493); conditions: data taken from ref 23-24; cited from earlier work
Rn_DYRK1A = Rn_DYRK1A (Rattus norvegicus, UniProt Q63470); conditions: data taken from ref 23-24; cited from earlier work
CLK4 [13] = conditions: human protein kinase; ref 17 (SM08502), 20-21 (CX-4945), 24 (DB18); cited from earlier work
DYRK2 [14] = system: DYRK2; parameters: method as in PMID 31560935; conditions: human protein kinase; cited from earlier work

Sequence of Mm_CLK4 (O35493 whole entry): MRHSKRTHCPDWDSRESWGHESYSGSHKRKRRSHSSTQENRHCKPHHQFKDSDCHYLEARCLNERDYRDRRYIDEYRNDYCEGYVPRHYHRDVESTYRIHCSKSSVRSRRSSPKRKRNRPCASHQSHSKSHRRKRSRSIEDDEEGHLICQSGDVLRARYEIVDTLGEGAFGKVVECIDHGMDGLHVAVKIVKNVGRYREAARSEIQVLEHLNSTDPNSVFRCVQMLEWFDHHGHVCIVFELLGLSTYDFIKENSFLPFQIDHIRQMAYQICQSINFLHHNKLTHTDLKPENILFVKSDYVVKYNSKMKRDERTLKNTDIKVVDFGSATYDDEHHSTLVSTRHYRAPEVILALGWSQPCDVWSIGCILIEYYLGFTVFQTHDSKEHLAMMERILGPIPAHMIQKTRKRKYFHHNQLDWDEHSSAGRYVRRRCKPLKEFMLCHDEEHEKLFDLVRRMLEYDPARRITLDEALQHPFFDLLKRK

For `CN1CCN(C(=O)C(C)(C)c2ccc(C(=O)Nc3cn4cc(-c5ccncc5)ccc4n3)cc2)CC1` [Compound T3], the IC50 (CLK3 [1]) is listed as 110 nM, the IC50 (DYRK1B [2]) is listed as 230 nM and the IC50 (DYRK1A [3]) is listed as 260 nM. For the same compound, the IC50 (CLK2 [4]) was 15 nM and the IC50 (CLK1 [5]) was 0.67 nM.

For `CNc1nc(NCc2cnccn2)c2c(-c3ccc4ncccc4c3)c[nH]c2n1` [Compound T-025], the Kd (DYRK2 [6]) is given as 32 nM, the Kd (CLK2 [7]) is given as 0.096 nM and the Kd (CLK1 [8]) is given as 4.8 nM. The Kd (CLK3 [9]) was 6.5 nM, the Kd (DYRK1B [10]) was 1.5 nM and the Kd (DYRK1A [11]) was 0.074 nM. The Kd (CLK4 [12]) was 0.61 nM.

In the case of `Cc1ccc(-n2cc(COc3cccc4cnc(Nc5cccc(Cl)c5)nc34)nn2)c([N+](=O)[O-])c1` [DB18], the IC50 (Mm_CLK4) is given as 20 nM and the IC50 (Rn_DYRK1A) is given as over 100000 nM.

In the case of `CN1CCN(c2cc(C(=O)Nc3cc4cc(-c5cnn(C)c5)ccc4cn3)ccn2)CC1` [SM08502], the IC50 (CLK4 [13]) is given as 1 nM, the IC50 (CLK3 [1]) is given as 22 nM and the IC50 (DYRK1B [2]) is given as […]. For the same compound, the IC50 (DYRK1A [3]) was 1 nM, the IC50 (CLK2 [4]) was […] and the IC50 (DYRK2 [14]) was […]. For the same compound, the IC50 (CLK1 [5]) was 8 nM.
